Reference: article PMC8398847, “Isavuconazole: Thermodynamic Evaluation of Processes Sublimation, Dissolution and Partition in Pharmaceutically Relevant Media” (Molecules, 2021)

Legend:
[1] = parameters: method as in earlier work; settings: cited from earlier work
[2] = Vapor pressure by transpiration (inert gas-carrier transfer) method; sublimation thermodynamic functions; format: physicochemical; settings: test of the technique with the standard
Description: The thermodynamic functions of sublimation were calculated as the fitting coefficients of the Clarke and Glew equation [17]:(1) Rlnp/p^0=ΔcrgGm°(θ)/θ+ΔcrgHm°(θ)(1/θ−1/T)+ΔcrgCp,m°(θ)(θ/T−1+lnT/θ) where ΔcrgHm°(θ) is the standard molar sublimation enthalpy, ΔcrgGm°(θ) is the standard molar Gibbs energy of sublimation, and ΔcrgCp,m°(θ) is the difference between the constant pressure standard molar heat capacity Cp,m°(g) of the gaseous compound and the constant pressure standard molar heat capacity Cp,m°(cr) of the crystalline compound. The value is the arbitrary reference temperature θ = 298.15 K; p^0 = 10^5 Pa is the reference pressure.
The transpiration method was used for the sublimation experiment. A stream of an inert gas (nitrogen) was passed over a sample at the constant temperature and flow rate; saturation of the gas with the substance vapor was achieved by low transpiration rate of gas. Then, the sublimated quantity of condensed vapor was determined. The volume of the inert gas and the amount of the sublimated material were used for calculation the vapor pressure over the sample of compound at this temperature. The following procedure was used for determination the amount of sublimed substance. The condensed sample was dissolved in a known volume of solvent Vsol. The mass of the substance was determined by the measurement of absorbance A of its solution (spectrophotometer Cary-50, Varian, Palo Alto, CA, USA, Software Version 3.00 (339)). According to the Lambert–Beer law the concentration of the solution c (mol·L^−1) can express knowing a value of the extinction coefficient ε (l·mol^−1·cm^−1) of the studied compound dissolved in the solvent and an absorbing path length (l):A = εcl(5) where l is an absorbing path length. Calculation the mass of sublimed compound was performed according to the equation:m = cVsolM(6)
M is the molar mass of the studied substance.
The vapor pressure p at each temperature was determined from the amount of the substance collected within a known time:p = mRTa/VM(7) where V is the volume of the gaseous nitrogen evaluated from the time measurement and the flow rate at the flow meter temperature Ta and the atmospheric pressure. Uncertainties for transpiration experiment parameters (T, m, Ta, V) are reported as standard deviations (Table 1). The combined standard uncertainty of vapor pressure measurements were estimated taking into account uncertainties of all variables involved in eq 7.
The details of equipment and experimental procedure are given in [33]. The sublimation technique was tested with benzoic acid as standard. The experimental vapor pressure values were obtained in the temperature interval of (307–385) K and were in good agreement with the results of studies within the limits of experimental error (Figure S7). The standard sublimation enthalpy of benzoic acid measured by us was 90.5 ± 0.3 kJ·mol^−1 and consistent with recommended by IUPAC value—89.7 ± 0.5 kJ·mol^−1 [38]. Each experiment at fixed temperature was repeated three times with the standard deviation of up to 5%.

O=C(O)c1ccccc1 [benzoic acid]
standard sublimation enthalpy recommended by IUPAC [1]: 21.4 ± 0.12 kcal/mol
standard sublimation enthalpy [2]: 21.6 ± 0.072 kcal/mol
